Measurements from the kinase profiling compilation of Christmann-Franck et al. (2016).

Columns and labels:
Experiment in all cases: KINOMEscan competition binding
Conditions in all cases: compound 1.0 µM
STK33 (human) = STK33 (human) (UniProt Q9BYT3)
NEK11 (human) = NEK11 (human) (UniProt Q8NG66)
[1] = system: FGFR3 (human), P22607 [G697C]
EPHA6 (human) = EPHA6 (human) (UniProt Q9UF33)
TBK1 (human) = TBK1 (human) (UniProt Q9UHD2)
PIP4K2B (human) = PIP4K2B (human) (UniProt P78356)
MAP2K1 (human) = MAP2K1 (human) (UniProt Q02750)
PTK2B (human) = PTK2B (human) (UniProt Q14289)
MKNK1 (human) = MKNK1 (human) (UniProt Q9BUB5)
RPS6KA3 KD1 (human) = RPS6KA3 KD1 (human) (UniProt P51812)
[2] = system: ABL1 (human), P00519 [Y253F]
ROS1 (human) = ROS1 (human) (UniProt P08922)
AKT2 (human) = AKT2 (human) (UniProt P31751)
NEK5 (human) = NEK5 (human) (UniProt Q6P3R8)
FGFR2 (human) = FGFR2 (human) (UniProt P21802)
[3] = system: KIT (human), P10721 [D816H]
MAPK4 (human) = MAPK4 (human) (UniProt P31152)
[4] = system: KIT (human), P10721 [A829P]
EPHB3 (human) = EPHB3 (human) (UniProt P54753)
CAMKK1 (human) = CAMKK1 (human) (UniProt Q8N5S9)
GSK3B (human) = GSK3B (human) (UniProt P49841)
EPHB1 (human) = EPHB1 (human) (UniProt P54762)
[5] = system: PIK3CA (human), P42336 [Q546K]
ZAP70 (human) = ZAP70 (human) (UniProt P43403)
PRKACB (human) = PRKACB (human) (UniProt P22694)
[6] = system: EGFR (human), P00533 [747-751 del / S ins]
RPS6KA2 KD1 (human) = RPS6KA2 KD1 (human) (UniProt Q15349)
MAP3K13 (human) = MAP3K13 (human) (UniProt O43283)
FES (human) = FES (human) (UniProt P07332)
IKBKB (human) = IKBKB (human) (UniProt O14920)
[7] = system: PIK3CA (human), P42336 [E545K]
TGFBR2 (human) = TGFBR2 (human) (UniProt P37173)
STK10 (human) = STK10 (human) (UniProt O94804)
MERTK (human) = MERTK (human) (UniProt Q12866)
ADCK3 (human) = ADCK3 (human) (UniProt Q8NI60)
STK4 (human) = STK4 (human) (UniProt Q13043)
MAP2K2 (human) = MAP2K2 (human) (UniProt P36507)
NTRK3 (human) = NTRK3 (human) (UniProt Q16288)
CDC42BPB (human) = CDC42BPB (human) (UniProt Q9Y5S2)
CHEK2 (human) = CHEK2 (human) (UniProt O96017)
MAPK10 (human) = MAPK10 (human) (UniProt P53779)
ROCK2 (human) = ROCK2 (human) (UniProt O75116)

FGFR3 (human), P22607 [G697C], sequence (P22607 whole entry G697C, looked up): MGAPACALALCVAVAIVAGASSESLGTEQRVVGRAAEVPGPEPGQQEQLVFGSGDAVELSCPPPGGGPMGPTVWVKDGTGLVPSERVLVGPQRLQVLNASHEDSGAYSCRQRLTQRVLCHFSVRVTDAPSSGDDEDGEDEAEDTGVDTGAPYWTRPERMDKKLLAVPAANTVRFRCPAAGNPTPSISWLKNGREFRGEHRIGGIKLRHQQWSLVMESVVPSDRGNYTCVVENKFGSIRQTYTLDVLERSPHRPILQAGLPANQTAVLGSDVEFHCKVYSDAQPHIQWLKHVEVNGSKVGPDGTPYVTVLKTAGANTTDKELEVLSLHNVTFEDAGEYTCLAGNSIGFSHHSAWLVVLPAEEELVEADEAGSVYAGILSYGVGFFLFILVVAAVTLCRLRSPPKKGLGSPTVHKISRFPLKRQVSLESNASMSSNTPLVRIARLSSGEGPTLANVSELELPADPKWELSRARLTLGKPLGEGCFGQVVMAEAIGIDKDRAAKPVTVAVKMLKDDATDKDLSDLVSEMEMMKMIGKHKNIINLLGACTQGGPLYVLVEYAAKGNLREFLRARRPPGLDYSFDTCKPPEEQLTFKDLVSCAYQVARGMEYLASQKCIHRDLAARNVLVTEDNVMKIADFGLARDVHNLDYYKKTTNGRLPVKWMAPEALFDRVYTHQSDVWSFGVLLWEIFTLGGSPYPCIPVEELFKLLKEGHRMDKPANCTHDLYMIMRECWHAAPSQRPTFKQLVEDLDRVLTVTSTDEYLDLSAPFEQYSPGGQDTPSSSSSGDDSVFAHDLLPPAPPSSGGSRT
CAMKK1 (human), sequence (Q8N5S9 whole entry, looked up): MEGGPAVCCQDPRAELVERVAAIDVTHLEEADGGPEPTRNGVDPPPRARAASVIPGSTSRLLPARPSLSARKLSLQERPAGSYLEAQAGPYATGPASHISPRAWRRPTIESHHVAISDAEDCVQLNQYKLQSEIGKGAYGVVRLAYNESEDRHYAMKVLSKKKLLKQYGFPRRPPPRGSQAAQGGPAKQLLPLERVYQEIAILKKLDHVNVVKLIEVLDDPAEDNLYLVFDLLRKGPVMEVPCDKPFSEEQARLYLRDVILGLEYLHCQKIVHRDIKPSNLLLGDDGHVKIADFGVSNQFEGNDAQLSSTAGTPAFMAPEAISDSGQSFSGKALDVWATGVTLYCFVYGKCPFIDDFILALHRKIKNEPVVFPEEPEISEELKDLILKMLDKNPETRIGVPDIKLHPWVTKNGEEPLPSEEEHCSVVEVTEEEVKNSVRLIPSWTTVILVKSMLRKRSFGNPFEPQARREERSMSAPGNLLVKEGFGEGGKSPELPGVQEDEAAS
MKNK1 (human), sequence (Q9BUB5 whole entry, looked up): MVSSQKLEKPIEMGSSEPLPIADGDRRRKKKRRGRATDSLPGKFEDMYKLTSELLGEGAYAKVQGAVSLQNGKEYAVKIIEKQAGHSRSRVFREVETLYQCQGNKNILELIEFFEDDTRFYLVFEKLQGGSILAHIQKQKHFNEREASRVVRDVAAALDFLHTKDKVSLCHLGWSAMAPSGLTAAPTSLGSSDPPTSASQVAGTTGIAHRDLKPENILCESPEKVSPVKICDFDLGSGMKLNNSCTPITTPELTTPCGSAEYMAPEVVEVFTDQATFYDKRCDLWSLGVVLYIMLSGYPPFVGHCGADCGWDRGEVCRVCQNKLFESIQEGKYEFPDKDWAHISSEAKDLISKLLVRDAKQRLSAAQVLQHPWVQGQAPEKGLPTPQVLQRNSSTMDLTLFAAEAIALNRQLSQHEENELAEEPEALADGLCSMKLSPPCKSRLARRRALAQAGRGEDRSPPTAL
ROS1 (human), sequence (P08922 whole entry, looked up): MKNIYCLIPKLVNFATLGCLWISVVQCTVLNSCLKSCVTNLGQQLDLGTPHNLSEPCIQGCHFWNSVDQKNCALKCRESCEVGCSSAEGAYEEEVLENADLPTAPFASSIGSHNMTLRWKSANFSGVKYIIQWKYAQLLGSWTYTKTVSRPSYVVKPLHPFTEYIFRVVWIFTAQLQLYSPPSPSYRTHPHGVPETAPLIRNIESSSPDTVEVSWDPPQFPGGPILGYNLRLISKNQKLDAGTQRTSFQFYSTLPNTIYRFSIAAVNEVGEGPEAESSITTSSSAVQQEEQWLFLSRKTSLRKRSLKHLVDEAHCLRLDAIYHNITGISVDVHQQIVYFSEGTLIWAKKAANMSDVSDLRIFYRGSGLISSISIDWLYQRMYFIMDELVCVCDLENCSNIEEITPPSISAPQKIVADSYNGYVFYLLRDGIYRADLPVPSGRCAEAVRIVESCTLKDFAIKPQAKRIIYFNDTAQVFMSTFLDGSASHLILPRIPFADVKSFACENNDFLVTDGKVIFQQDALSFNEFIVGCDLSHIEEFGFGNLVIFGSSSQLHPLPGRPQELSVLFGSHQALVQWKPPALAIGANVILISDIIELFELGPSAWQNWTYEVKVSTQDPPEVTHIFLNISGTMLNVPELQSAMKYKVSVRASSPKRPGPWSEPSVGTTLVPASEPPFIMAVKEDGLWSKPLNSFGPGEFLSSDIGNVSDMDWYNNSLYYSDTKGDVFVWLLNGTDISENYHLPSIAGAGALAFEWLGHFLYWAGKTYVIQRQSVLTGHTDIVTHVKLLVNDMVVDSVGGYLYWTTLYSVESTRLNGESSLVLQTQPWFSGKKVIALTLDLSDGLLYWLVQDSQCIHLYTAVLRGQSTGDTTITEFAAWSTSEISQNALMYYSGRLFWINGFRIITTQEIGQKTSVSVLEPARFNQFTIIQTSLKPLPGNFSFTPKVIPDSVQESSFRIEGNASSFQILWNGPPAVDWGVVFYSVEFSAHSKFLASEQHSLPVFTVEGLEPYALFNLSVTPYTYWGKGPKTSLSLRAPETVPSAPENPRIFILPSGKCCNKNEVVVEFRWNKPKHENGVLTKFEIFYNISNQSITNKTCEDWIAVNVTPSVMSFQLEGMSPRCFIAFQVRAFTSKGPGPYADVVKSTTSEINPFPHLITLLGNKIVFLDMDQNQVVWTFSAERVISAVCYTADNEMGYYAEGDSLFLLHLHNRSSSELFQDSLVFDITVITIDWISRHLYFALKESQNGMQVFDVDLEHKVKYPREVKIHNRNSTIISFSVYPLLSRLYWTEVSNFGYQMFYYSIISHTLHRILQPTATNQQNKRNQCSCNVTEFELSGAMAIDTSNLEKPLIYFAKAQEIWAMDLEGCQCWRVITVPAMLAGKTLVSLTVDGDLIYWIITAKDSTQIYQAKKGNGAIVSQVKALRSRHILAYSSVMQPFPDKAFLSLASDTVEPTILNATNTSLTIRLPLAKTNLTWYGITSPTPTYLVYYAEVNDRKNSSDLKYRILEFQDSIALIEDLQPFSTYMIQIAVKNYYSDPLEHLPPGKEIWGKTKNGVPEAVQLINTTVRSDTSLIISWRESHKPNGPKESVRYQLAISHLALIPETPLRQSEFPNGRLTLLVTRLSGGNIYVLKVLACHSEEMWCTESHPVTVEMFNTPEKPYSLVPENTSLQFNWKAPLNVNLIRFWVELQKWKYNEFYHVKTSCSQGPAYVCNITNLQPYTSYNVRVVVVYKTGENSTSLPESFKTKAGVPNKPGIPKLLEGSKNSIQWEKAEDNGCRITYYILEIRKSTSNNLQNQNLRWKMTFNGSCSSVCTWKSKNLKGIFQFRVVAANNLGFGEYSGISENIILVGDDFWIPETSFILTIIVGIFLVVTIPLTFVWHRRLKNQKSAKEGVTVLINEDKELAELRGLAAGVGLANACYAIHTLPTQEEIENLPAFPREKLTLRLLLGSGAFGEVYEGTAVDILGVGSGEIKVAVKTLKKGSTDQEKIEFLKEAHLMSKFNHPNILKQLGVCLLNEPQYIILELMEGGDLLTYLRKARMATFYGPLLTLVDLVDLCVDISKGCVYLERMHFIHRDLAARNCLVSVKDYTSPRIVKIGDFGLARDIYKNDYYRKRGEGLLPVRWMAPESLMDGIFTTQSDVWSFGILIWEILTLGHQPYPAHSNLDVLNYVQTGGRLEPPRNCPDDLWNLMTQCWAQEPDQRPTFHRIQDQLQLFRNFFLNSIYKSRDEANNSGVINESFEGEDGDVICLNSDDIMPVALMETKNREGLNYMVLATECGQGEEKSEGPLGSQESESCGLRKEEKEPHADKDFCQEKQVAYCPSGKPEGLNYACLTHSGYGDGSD
AKT2 (human), sequence (P31751 whole entry, looked up): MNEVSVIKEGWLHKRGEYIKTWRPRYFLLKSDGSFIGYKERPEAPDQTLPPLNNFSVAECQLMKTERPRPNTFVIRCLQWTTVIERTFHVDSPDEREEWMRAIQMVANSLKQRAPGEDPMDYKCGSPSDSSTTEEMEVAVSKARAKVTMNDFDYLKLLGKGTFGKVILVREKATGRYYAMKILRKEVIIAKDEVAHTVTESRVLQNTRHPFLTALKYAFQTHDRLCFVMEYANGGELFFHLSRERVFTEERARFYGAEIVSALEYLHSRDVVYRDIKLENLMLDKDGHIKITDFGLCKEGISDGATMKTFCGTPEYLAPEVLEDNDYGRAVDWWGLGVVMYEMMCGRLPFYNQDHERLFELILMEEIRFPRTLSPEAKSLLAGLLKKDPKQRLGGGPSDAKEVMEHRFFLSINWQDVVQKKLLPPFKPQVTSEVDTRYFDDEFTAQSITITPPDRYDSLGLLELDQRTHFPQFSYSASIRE
STK4 (human), sequence (Q13043 whole entry, looked up): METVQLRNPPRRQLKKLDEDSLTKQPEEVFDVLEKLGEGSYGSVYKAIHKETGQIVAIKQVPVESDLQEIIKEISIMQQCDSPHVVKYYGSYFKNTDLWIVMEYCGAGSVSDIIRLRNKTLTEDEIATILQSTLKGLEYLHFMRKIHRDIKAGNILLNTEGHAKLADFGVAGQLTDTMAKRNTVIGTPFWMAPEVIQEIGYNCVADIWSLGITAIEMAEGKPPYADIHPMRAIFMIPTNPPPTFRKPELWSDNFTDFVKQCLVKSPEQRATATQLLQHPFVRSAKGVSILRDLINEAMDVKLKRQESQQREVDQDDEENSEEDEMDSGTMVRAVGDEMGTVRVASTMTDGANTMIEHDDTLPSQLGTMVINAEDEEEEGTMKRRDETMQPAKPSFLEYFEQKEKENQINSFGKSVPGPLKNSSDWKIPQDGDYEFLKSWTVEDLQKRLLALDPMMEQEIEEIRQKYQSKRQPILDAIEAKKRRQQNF

In the case of CN(C)C/C=C/C(=O)Nc1cccc(C(=O)Nc2ccc(Nc3nccc(-c4cccnc4)n3)cc2)c1, the kinase still bound, per cent of control (STK33 (human)) is reported as 93%, the kinase still bound, per cent of control (NEK11 (human)) is reported as 86% and the kinase still bound, per cent of control [1] is reported as 100%. It also gave a kinase still bound, per cent of control (EPHA6 (human)) of 95%, a kinase still bound, per cent of control (TBK1 (human)) of 61% and a kinase still bound, per cent of control (PIP4K2B (human)) of 18%. The kinase still bound, per cent of control (MAP2K1 (human)) was 46%, the kinase still bound, per cent of control (PTK2B (human)) was 100% and the kinase still bound, per cent of control (MKNK1 (human)) was 100%. For the same compound, the kinase still bound, per cent of control (RPS6KA3 KD1 (human)) was 100%, the kinase still bound, per cent of control [2] was 39% and the kinase still bound, per cent of control (ROS1 (human)) was 100%. For the same compound, the kinase still bound, per cent of control (AKT2 (human)) was 96%, the kinase still bound, per cent of control (NEK5 (human)) was 7.8% and the kinase still bound, per cent of control (FGFR2 (human)) was 67%. It also gave a kinase still bound, per cent of control [3] of 42%, a kinase still bound, per cent of control (MAPK4 (human)) of 11% and a kinase still bound, per cent of control [4] of 78%. It also gave a kinase still bound, per cent of control (EPHB3 (human)) of 96%, a kinase still bound, per cent of control (CAMKK1 (human)) of 64% and a kinase still bound, per cent of control (GSK3B (human)) of 78%. It also gave a kinase still bound, per cent of control (EPHB1 (human)) of 92%, a kinase still bound, per cent of control [5] of 100% and a kinase still bound, per cent of control (ZAP70 (human)) of 100%. It also gave a kinase still bound, per cent of control (PRKACB (human)) of 100%, a kinase still bound, per cent of control [6] of 74% and a kinase still bound, per cent of control (RPS6KA2 KD1 (human)) of 100%. For the same compound, the kinase still bound, per cent of control (MAP3K13 (human)) was 100%, the kinase still bound, per cent of control (FES (human)) was 100% and the kinase still bound, per cent of control (IKBKB (human)) was 48%. The kinase still bound, per cent of control [7] was 100%, the kinase still bound, per cent of control (TGFBR2 (human)) was 76% and the kinase still bound, per cent of control (STK10 (human)) was 100%. The kinase still bound, per cent of control (MERTK (human)) was 100%, the kinase still bound, per cent of control (ADCK3 (human)) was 58% and the kinase still bound, per cent of control (STK4 (human)) was 45%. The kinase still bound, per cent of control (MAP2K2 (human)) was 58%, the kinase still bound, per cent of control (NTRK3 (human)) was 97% and the kinase still bound, per cent of control (CDC42BPB (human)) was 93%. It also gave a kinase still bound, per cent of control (CHEK2 (human)) of 100%, a kinase still bound, per cent of control (MAPK10 (human)) of 0% and a kinase still bound, per cent of control (ROCK2 (human)) of 16%.

Work on Cc1cc(NC(=O)c2cccc(NC(=O)/C=C/CN(C)C)c2)ccc1Nc1nccc(-c2cccnc2)n1 yielded a kinase still bound, per cent of control (STK33 (human)) of 100%, a kinase still bound, per cent of control (NEK11 (human)) of 99% and a kinase still bound, per cent of control [1] of 100%. The kinase still bound, per cent of control (EPHA6 (human)) was 100%, the kinase still bound, per cent of control (TBK1 (human)) was 100% and the kinase still bound, per cent of control (PIP4K2B (human)) was 99%. The kinase still bound, per cent of control (MAP2K1 (human)) was 94%, the kinase still bound, per cent of control (PTK2B (human)) was 87% and the kinase still bound, per cent of control (MKNK1 (human)) was 81%. It also gave a kinase still bound, per cent of control (RPS6KA3 KD1 (human)) of 100%, a kinase still bound, per cent of control [2] of 71% and a kinase still bound, per cent of control (ROS1 (human)) of 90%. The kinase still bound, per cent of control (AKT2 (human)) was 100%, the kinase still bound, per cent of control (NEK5 (human)) was 92% and the kinase still bound, per cent of control (FGFR2 (human)) was 79%. It also gave a kinase still bound, per cent of control [3] of 68%, a kinase still bound, per cent of control (MAPK4 (human)) of 81% and a kinase still bound, per cent of control [4] of 69%. It also gave a kinase still bound, per cent of control (EPHB3 (human)) of 100%, a kinase still bound, per cent of control (CAMKK1 (human)) of 100% and a kinase still bound, per cent of control (GSK3B (human)) of 100%. For the same compound, the kinase still bound, per cent of control (EPHB1 (human)) was 100%, the kinase still bound, per cent of control [5] was 100% and the kinase still bound, per cent of control (ZAP70 (human)) was 79%. For the same compound, the kinase still bound, per cent of control (PRKACB (human)) was 76%, the kinase still bound, per cent of control [6] was 95% and the kinase still bound, per cent of control (RPS6KA2 KD1 (human)) was 100%. For the same compound, the kinase still bound, per cent of control (MAP3K13 (human)) was 93%, the kinase still bound, per cent of control (FES (human)) was 89% and the kinase still bound, per cent of control (IKBKB (human)) was 99%. For the same compound, the kinase still bound, per cent of control [7] was 100%, the kinase still bound, per cent of control (TGFBR2 (human)) was 64% and the kinase still bound, per cent of control (STK10 (human)) was 100%. The kinase still bound, per cent of control (MERTK (human)) was 100%, the kinase still bound, per cent of control (ADCK3 (human)) was 100% and the kinase still bound, per cent of control (STK4 (human)) was 100%. For the same compound, the kinase still bound, per cent of control (MAP2K2 (human)) was 91%, the kinase still bound, per cent of control (NTRK3 (human)) was 79% and the kinase still bound, per cent of control (CDC42BPB (human)) was 68%. The kinase still bound, per cent of control (CHEK2 (human)) was 95%, the kinase still bound, per cent of control (MAPK10 (human)) was 0% and the kinase still bound, per cent of control (ROCK2 (human)) was 49%.
